In US11234979B2, “Heteroaryl compounds as muscarinic M1 receptor positive allosteric modulators” (SUVEN LIFE SCIENCES LIMITED, priority 2017, dated 2022):

Key:
[1] = Rodent brain penetration study; type: in vivo, Male Wistar rats; settings: male, Wistar, brain and plasma, po; rat, 3 mg/kg, p.o. @ 1.0 hr, brain-plasma ratio; read-out: Single dose Rat Brain Penetration (Cb/Cp)
Description: Rodent Brain Penetration Study
Male Wistar rats (260±40 grams) were used as experimental animals. Three animals were housed in each cage. Animals were given water and food ad libitum throughout the experiment and maintained on a 12 hours light/dark cycle.
Brain penetration was determined in discrete manner in rats. One day prior to dosing day, male Wistar rats were acclimatized and randomly grouped according to their weight. At each time point (0.5, 1 and 2 hours) n=3 animals were used.
The test compounds were suitably preformulated and administered orally at (free base equivalent) 3 mg/kg. Blood samples were removed via cardiac puncture by using isoflurane anesthesia. The animals were sacrificed to collect brain tissue. Plasma was separated and brain samples were homogenized and stored frozen at −20° C. until analysis. The concentrations of the test compounds in plasma and brain were determined using LC-MS/MS method.
The test compounds were quantified in plasma and brain homogenate by qualified LC-MS/MS method using suitable extraction technique. The test compounds were quantified in the calibration range of 1-500 ng/mL in plasma and brain homogenate. Study samples were analyzed using calibration samples in the batch and quality control samples spread across the batch.

[2] = Rodent pharmacokinetic study; type: in vivo, Male Wistar rats; settings: male, Wistar, rat, plasma
Description: Rodent Pharmacokinetic Study
Male Wistar rats (260±50 grams) were used as experimental animals. Animals were housed individually in polypropylene cage. Two days prior to study, male Wistar rats were anesthetized with isoflurane for surgical placement of jugular vein catheter. Rats were randomly divided for oral (3 mg/kg) and intravenous (i.v) (1 mg/kg) dosing (n=3/group) and fasted overnight before oral dosing (p.o.). However, rats allocated to intravenous (i.v.) dosing food and water was provided ad libitum.
At pre-determined point, blood was collected through jugular vein and replenished with an equivalent volume of normal saline. Collected blood was transferred into a labeled eppendorf tube containing 10 μL of heparin as an anticoagulant. Typically blood samples were collected at following time points: 0.08, 0.25, 0.5, 1, 2, 4, 6, 8, and 24 hours post dose. Blood was centrifuged at 4000 rpm for 10 minutes. Plasma was separated and stored frozen at −80° C. until analysis. The concentrations of the test compounds were quantified in plasma by qualified LC-MS/MS method using suitable extraction technique. The test compounds were quantified in the calibration range around 1-1000 ng/mL in plasma. Study samples were analyzed using calibration samples in the batch and quality control samples spread across the batch.
Pharmacokinetic parameters Cmax, AUCt, T1/2, clearance and bioavailability (F) were calculated by non-compartmental model using standard non-compartmental model by using Phoenix WinNonlin 6.0.2 or 6.0.3 version Software package.

Male Wistar rats = assay: Object recognition task model; type: in vivo; settings: rat, 3 mg/kg, p.o.
Description: Object Recognition Task Model
The cognition enhancing properties of compounds of this invention were estimated by using this model.
Male Wistar rats (8-10 weeks old) were used as experimental animals. Four animals were housed in each cage. Animals were kept on 20% food deprivation from a day prior to experimentation. Water was provided ad libitum throughout the experiment. Animals were maintained on a 12 hours light/dark cycle in temperature and humidity controlled room. The experiment was carried out in a circular or square arena made up of acrylic. Rats were habituated to individual arenas for up to 1 hour in the absence of any objects on day 1.
One group of 12 rats received vehicle and another set of animals received compound of the formula (I), before the familiar (T1) and choice (T2) trials. During the familiarization phase, (T1), the rats were placed individually in the arena for 3 minutes, in which two identical objects (a1 and a2) were positioned 10 cm from the wall. 24 hours after T1, trial for long-term memory test was performed. The same rats were placed in the same arena as they were placed in T1 trial. During the choice phase (T2) rats were allowed to explore the arena for 3 minutes in presence of a copy of familiar object (a3) and one novel object (b). During the T1 and T2 trial, explorations of each object (defined as sniffing, licking, chewing or having moving vibrissae whilst directing the nose towards the object at a distance of less than 1 cm) were recorded using stopwatch.
T1 is the total time spent exploring the familiar objects (a1+a2).
T2 is the total time spent exploring the familiar object and novel object (a3+b).
The object recognition test was performed as described by Ennaceur, A., Delacour, J., 1988, A new one-trial test for neurobiological studies of memory in rats˜Behavioural data, Behav. Brain Res., 31, 47-59.

[3] = biological target: T1, recombinant human Muscarinic M1 receptor (Homo sapiens, UniProt P11229); assay: Allosteric potency EC50 for Muscarinic M1 receptor, CHO pCRE-Luc reporter assay with EC20 of acetylcholine; type: cell-based; settings: CHO cells, in presence of EC20 of acetylcholine, 4 hours
T1 construct: expressed in transfected cells
T1 sequence (P11229 1-460): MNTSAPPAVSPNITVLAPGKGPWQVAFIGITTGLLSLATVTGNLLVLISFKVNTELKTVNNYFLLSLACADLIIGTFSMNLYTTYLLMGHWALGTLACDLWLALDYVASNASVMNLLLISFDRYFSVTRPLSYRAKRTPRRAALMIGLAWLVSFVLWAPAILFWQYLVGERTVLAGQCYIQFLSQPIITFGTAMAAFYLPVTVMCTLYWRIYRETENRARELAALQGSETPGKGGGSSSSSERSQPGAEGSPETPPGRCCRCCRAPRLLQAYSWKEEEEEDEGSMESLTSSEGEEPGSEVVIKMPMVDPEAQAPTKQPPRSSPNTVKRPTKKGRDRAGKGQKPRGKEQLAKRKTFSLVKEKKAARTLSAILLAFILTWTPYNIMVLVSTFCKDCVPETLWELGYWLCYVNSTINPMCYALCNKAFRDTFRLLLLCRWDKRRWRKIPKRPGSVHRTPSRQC
Summary of the method: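 Stable CHO line expressing human M1 receptor with CRE-driven luciferase, serum-starved overnight, then exposed to increasing compound concentrations plus an EC20 of acetylcholine in OptiMEM for 4 hours at 37° C. Luciferase read after lysis, normalized to maximal acetylcholine response; EC50 is concentration giving 50% stimulation.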

[4] = choice trial T2, 24 hours after T1

Structure (SMILES): Cn1cc(-c2ccc(Cc3cc(C(=O)N[C@H]4CCCC[C@@H]4O)n4ncccc34)cc2)cn1 [Example 32, N-(cis-1S,2S-2-Hydroxycyclohexyl)-5-[4-(1-methyl-1H-pyrazol-4-yl)-benzyl]-pyrrolo [1,2-b]pyridazine-7-carboxamide]
- Kp at 1 h [1]: 0.15 ± 0.02
- AUC(0-t) ([2]; iv, i.v. 1 mg/kg): 3260 ± 802 ng·h/mL
- half-life ([2]; iv, i.v. 1 mg/kg): 3.2 ± 1.2 h
- clearance ([2]; iv, i.v. 1 mg/kg): 5.2 ± 1.4 mL/min/kg
- bioavailability ([2]; oral 3 mg/kg vs i.v. 1 mg/kg, bioavailability): 50 ± 17%
- AUC(0-t) ([2]; oral 3 mg/kg): 4900 ± 1640 ng·h/mL
- Cmax ([2]; oral 3 mg/kg): 650 ± 224 ng/mL
- half-life ([2]; oral 3 mg/kg): 3.2 ± 0.4 h
- Inference (Male Wistar rats): Active
- Exploration time mean ± S.E.M, Familiar object (Male Wistar rats; [4]): 11.64 ± 2.16 s
- Exploration time mean ± S.E.M, Novel object (Male Wistar rats; [4]): 19.81 ± 2.96 s
- EC50 [3]: 66 nM
